Columns and labels:
[1] = test system: Puccinia recondita f. Sp. Tritici; assay: Fungicidal activity against Puccinia recondita f. sp. tritici / wheat / leaf disc preventative (brown rust); format: in vivo; details: foliar, 200 ppm in the applied formulation, wheat leaf segments, preventative, compared to untreated control leaf disks, read-out: disease control
Method in brief: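 200 ppm spray on wheat cv. Kanzler leaf segments; spore inoculation +1 day; 19° C., 75% rh, 12 h/12 h light cycle; single rating of % control vs untreated at 7 to 9 days.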

[2] = test system: Puccinia recondita f. Sp. Tritici; assay: Fungicidal activity against Puccinia recondita f. sp. tritici / wheat / leaf disc curative (brown rust); format: in vivo; details: foliar, 24 h, 200 ppm in the applied formulation, wheat leaf segments, curative (applied 1 day after inoculation), compared to untreated control leaf disks, read-out: disease control
Method in brief: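 Wheat cv. Kanzler leaf segments on agar, inoculated with rust spore suspension, kept dark at 19° C and 75% RH; formulated compound sprayed 1 day post-inoculation. Incubated 19° C, 75% RH, 12 h light/12 h dark; percent disease control vs untreated scored 6 to 8 days after application.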

Phakopsora Pachyrhizi = assay: Fungicidal activity against Phakopsora pachyrhizi / soybean / leaf disc preventative (Asian soybean rust); format: in vivo; details: foliar, 200 ppm in the applied formulation, soybean leaf disks, compared to untreated control leaf disks, read-out: disease control
Method in brief: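 Scored 12 to 14 days post-application as percent control relative to untreated check discs, rust spores were sprayed under the disc one day after compound treatment. Incubation: 20°C, 75% rh, first 24–36 h in darkness, then 12 h daily light; discs kept on water agar.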

[3] = test system: Glomerella lagenarium (Colletotrichum lagenarium); assay: Fungicidal activity against Glomerella lagenarium (Colletotrichum lagenarium) liquid culture / cucumber / preventative (anthracnose); format: cell-based; details: Colletotrichum orbiculare; 20 ppm in the applied formulation; liquid culture (PDB), growth inhibition measured photometrically after 3 to 4 days; compared to untreated control; read-out: disease control
Method in brief: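 Percent activity against the untreated check was derived from photometric growth measurements made 2 to 7 days after conidia in potato dextrose broth were combined with compound at 20 ppm. Cultures were kept dark at 24 °C and 96% humidity.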

CCOCC(=O)N(Cc1ccc(-c2noc(C(F)(F)F)n2)cc1)C(C)CC (stereo not drawn) [Compound 1.383, 2-ethoxy-N-sec-butyl-N-[[4-[5-(trifluoromethyl)-1,2,4-oxadiazol-3-yl]phenyl]methyl]-acetamide]
≥ 80%: pest or weed control at 200 ppm [1] | pest or weed control at 200 ppm [2] | pest or weed control at 200 ppm (Phakopsora Pachyrhizi)

O=C(C1CCCO1)N(Cc1ccc(-c2noc(C(F)(F)F)n2)cc1)C1COC1 (stereo not drawn) [Compound 1.747, N-(oxetan-3-yl)-N-[[4-[5-(trifluoromethyl)-1,2,4-oxadiazol-3-yl]phenyl]methyl]-tetrahydrofuran-2-carboxamide]
≥ 80%: pest or weed control at 200 ppm [1] | pest or weed control at 200 ppm [2] | pest or weed control at 200 ppm (Phakopsora Pachyrhizi)

CC1(C(=O)OCCN(Cc2ccc(-c3noc(C(F)(F)F)n3)cc2)C(=O)C2(C)COC2)COC1 [Compound 1.722, 2-[(3-methyloxetane-3-carbonyl)-[[4-[5-(trifluoromethyl)-1,2,4-oxadiazol-3-yl]phenyl]methyl]-amino]ethyl 3-methyloxetane-3-carboxylate]
≥ 80%: pest or weed control at 200 ppm [1] | pest or weed control at 200 ppm [2] | pest or weed control at 200 ppm (Phakopsora Pachyrhizi)

COC(C)C(=O)N(CCO)Cc1ccc(-c2noc(C(F)(F)F)n2)cc1 (stereo not drawn) [Compound 1.731, N-(2-hydroxyethyl)-2-methoxy-N-[[4-[5-(trifluoromethyl)-1,2,4-oxadiazol-3-yl]phenyl]methyl]-propanamide]
≥ 80%: pest or weed control at 200 ppm [1] | pest or weed control at 200 ppm [2] | pest or weed control at 200 ppm (Phakopsora Pachyrhizi)

C#CCN(Cc1ccc(-c2noc(C(F)(F)F)n2)cc1)C(=O)C1CSC1 [Compound 1.172, N-prop-2-ynyl-N-[[4-[5-(trifluoromethyl)-1,2,4-oxadiazol-3-yl]phenyl]methyl]-thietane-3-carboxamide]
≥ 80%: pest or weed control at 200 ppm [1] | pest or weed control at 200 ppm [2] | pest or weed control at 200 ppm (Phakopsora Pachyrhizi)

CC1(C(=O)N(Cc2ccc(-c3noc(C(F)(F)F)n3)cc2)C2COC2)COC1 [Compound 1.744, 3-methyl-N-(oxetan-3-yl)-N-[[4-[5-(trifluoromethyl)-1,2,4-oxadiazol-3-yl]phenyl]methyl]-oxetane-3-carboxamide]
≥ 80%: pest or weed control at 200 ppm [1] | pest or weed control at 200 ppm [2] | pest or weed control at 200 ppm (Phakopsora Pachyrhizi)

CCCN(Cc1ccc(-c2noc(C(F)(F)F)n2)cc1)C(=O)CC(F)(F)F [Compound 1.667, 3,3,3-trifluoroN-propyl-N-[[4-[5-(trifluoromethyl)-1,2,4-oxadiazol-3-yl]phenyl]methyl]-propanamide]
≥ 80%: pest or weed control at 200 ppm [2] | pest or weed control at 200 ppm (Phakopsora Pachyrhizi) | inhibition of growth at 20 ppm [3]

CCCCON(Cc1ccc(-c2noc(C(F)(F)F)n2)cc1)C(=O)C(C)CC (stereo not drawn) [Compound 1.640, N-butoxy-2-methyl-N-[[4-[5-(trifluoromethyl)-1,2,4-oxadiazol-3-yl]phenyl]methyl]-butanamide]
≥ 80%: pest or weed control at 200 ppm [1] | pest or weed control at 200 ppm [2] | pest or weed control at 200 ppm (Phakopsora Pachyrhizi)

CC1(C(=O)ON(Cc2ccc(-c3noc(C(F)(F)F)n3)cc2)C(=O)C2(C)COC2)COC1 [Compound 1.767, [(3-methyloxetane-3-carbonyl)-[[4-[5-(trifluoromethyl)-1,2,4-oxadiazol-3-yl]phenyl]methyl]-amino] 3-methyloxelane-3-carboxylate]
≥ 80%: pest or weed control at 200 ppm [1] | pest or weed control at 200 ppm [2] | pest or weed control at 200 ppm (Phakopsora Pachyrhizi)

CON(Cc1ccc(-c2noc(C(F)(F)F)n2)cc1)C(=O)C1(c2ccccc2)CC1 [Compound 1.23, N-methoxy-1-phenyl-N-[[4-[5-(trifluoromethyl)-1,2,4-oxadiazol-3-yl]phenyl]methyl]-cyclopropane-carboxamide]
≥ 80%: pest or weed control at 200 ppm [2] | pest or weed control at 200 ppm (Phakopsora Pachyrhizi) | inhibition of growth at 20 ppm [3]

COC(C)C(=O)OCCN(Cc1ccc(-c2noc(C(F)(F)F)n2)cc1)C(=O)C(C)OC (stereo not drawn) [Compound 1.732, 2-[2-methoxypropanoyl-[[4-[5-(trifluoromethyl)-1,2,4-oxadiazol-3-yl]phenyl]methyl]-amino]ethyl 2-methoxypropanoate]
≥ 80%: pest or weed control at 200 ppm [1] | pest or weed control at 200 ppm [2] | pest or weed control at 200 ppm (Phakopsora Pachyrhizi)

CON(Cc1ccc(-c2noc(C(F)(F)F)n2)cc1)C(=O)c1ccc(Cl)cc1 [Compound 1.71, 4-chloro-N-methoxy-N-[[4-[5-(trifluoromethyl)-1,2,4-oxadiazol-3-yl]phenyl]methyl]-benzamide]
≥ 80%: pest or weed control at 200 ppm [2] | pest or weed control at 200 ppm (Phakopsora Pachyrhizi) | inhibition of growth at 20 ppm [3]

CON(Cc1ccc(-c2noc(C(F)(F)F)n2)cc1)C(=O)N1CCOCC1 [Compound 3.1, N-methoxy-N-[[4-[5-(trifluoromethyl)-1,2,4-oxadiazol-3-yl]phenyl]methyl]-morpholine-4-carboxamide]
≥ 80%: pest or weed control at 200 ppm [2] | pest or weed control at 200 ppm (Phakopsora Pachyrhizi) | inhibition of growth at 20 ppm [3]

O=C(C1CC1)N(Cc1ccc(-c2noc(C(F)(F)F)n2)cc1)CC(F)(F)F [Compound 1.586, N-(2,2,2-trifluoroethyl)-N-[[4-[5-(trifluoromethyl)-1,2,4-oxadiazol-3-yl]phenyl]methyl]-cyclopropane-carboxamide]
≥ 80%: pest or weed control at 200 ppm [2] | pest or weed control at 200 ppm (Phakopsora Pachyrhizi) | inhibition of growth at 20 ppm [3]

CC1(C(=O)N(CCO)Cc2ccc(-c3noc(C(F)(F)F)n3)cc2)COC1 [Compound 1.721, N-(2-hydroxyethyl)-3-methyl-N-[[4-[5-(trifluoromethyl)-1,2,4-oxadiazol-3-yl]phenyl]methyl]-oxetane-3-carboxamide]
≥ 80%: pest or weed control at 200 ppm [1] | pest or weed control at 200 ppm [2] | pest or weed control at 200 ppm (Phakopsora Pachyrhizi)

N#CCC(=O)N(Cc1ccc(-c2noc(C(F)(F)F)n2)cc1)C1COC1 [Compound 1.748, 2-cyano-N-(oxetan-3-yl)-N-[[4-[5-(trifluoromethyl)-1,2,4-oxadiazol-3-yl]phenyl]methyl]-acetamide]
≥ 80%: pest or weed control at 200 ppm [1] | pest or weed control at 200 ppm [2] | pest or weed control at 200 ppm (Phakopsora Pachyrhizi)

O=C(C1CC1(F)F)N(Cc1ccc(-c2noc(C(F)(F)F)n2)cc1)CC1CC1 (stereo not drawn) [Compound 1.207, N-(cyclopropylmethyl)-2,2-difluoroN-[[4-[5-(trifluoromethyl)-1,2,4-oxadiazol-3-yl]phenyl]methyl]-cyclopropane-carboxamide]
≥ 80%: pest or weed control at 200 ppm [2] | pest or weed control at 200 ppm (Phakopsora Pachyrhizi) | inhibition of growth at 20 ppm [3]

COCCC(=O)N(Cc1ccc(-c2noc(C(F)(F)F)n2)cc1)CC(F)(F)F [Compound 1.693, 3-methoxy-N-(2,2,2-trifluoroethyl)-N-[[4-[5-(trifluoromethyl)-1,2,4-oxadiazol-3-yl]phenyl]methyl]-propanamide]
≥ 80%: pest or weed control at 200 ppm [2] | pest or weed control at 200 ppm (Phakopsora Pachyrhizi) | inhibition of growth at 20 ppm [3]

O=C(OCCN(Cc1ccc(-c2noc(C(F)(F)F)n2)cc1)C(=O)C1CCOC1)C1CCOC1 (stereo not drawn) [Compound 1.712, 2-(tetrahydrofuran-3-carbonyl-[[4-[5-(trifluoromethyl)-1,2,4-oxadiazol-3-yl]phenyl]methyl]-amino]ethyl tetrahydrofuran-3-carboxylate]
≥ 80%: pest or weed control at 200 ppm [1] | pest or weed control at 200 ppm [2] | pest or weed control at 200 ppm (Phakopsora Pachyrhizi)

C#CCN(Cc1ccc(-c2noc(C(F)(F)F)n2)cc1)C(=O)C(C)OC (stereo not drawn) [Compound 1.200, 2-methoxy-N-prop-2-ynyl-N-[[4-[5-(trifluoromethyl)-1,2,4-oxadiazol-3-yl]phenyl]methyl]-propanamide]
≥ 80%: pest or weed control at 200 ppm [1] | pest or weed control at 200 ppm [2] | pest or weed control at 200 ppm (Phakopsora Pachyrhizi)

CCCC(=O)N(Cc1ccc(-c2noc(C(F)(F)F)n2)cc1)CC1CC1 [Compound 1.210, N-(cyclopropylmethyl)-N-[[4-[5-(trifluoromethyl)-1,2,4-oxadiazol-3-yl]phenyl]methyl]-butanamide]
≥ 80%: pest or weed control at 200 ppm [2] | pest or weed control at 200 ppm (Phakopsora Pachyrhizi) | inhibition of growth at 20 ppm [3]

O=C(C1CCOC1)N(CCO)Cc1ccc(-c2noc(C(F)(F)F)n2)cc1 (stereo not drawn) [Compound 1.711, N-(2-hydroxyethyl)-N-[[4-[5-(trifluoromethyl)-1,2,4-oxadiazol-3-yl]phenyl]methyl]-tetrahydrofuran-3-carboxamide]
≥ 80%: pest or weed control at 200 ppm [1] | pest or weed control at 200 ppm [2] | pest or weed control at 200 ppm (Phakopsora Pachyrhizi)

Source: US11180462B2, “Microbiocidal oxadiazole derivatives” (SYNGENTA PARTICIPATIONS AG, priority 2015, dated 2021)
